Here are results for 84 compounds from PubChem BioAssay AID1959 (Broad Institute, 2009).

SMILES strings stand for the structures. Activity calls are given as the source filed them.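 How the source made its calls: active means growth-inhibition EC50 no more than tenfold above the top tested dose; inconclusive means flat fit between 30% and 70% inhibition, or unreliable fit; inactive means EC50 more than tenfold above the top tested dose.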

As usually defined, the EC50 is the concentration needed to bring the measured effect to its halfway point.

The assay relates to E. coli NEB5alpha growth, BacTiter-Glo luminescence, 4 h. Put plainly: Escherichia coli growth inhibition, dose response, counter-screen for MEX-5/POS-1 RNA-binding inhibitor project, luminescence, NEB5alpha (AID 1959;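 further: pUC19-transformed ampicillin-resistant cells grown in LB with ampicillin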). (Counterscreens check selectivity or assay interference.)
Turning to `CS(=O)(=O)Nc1nc2n(n1)C(c1ccccc1)C=C(c1ccc(Br)cc1)N2` (centres undefined), the EC50 is > 11 µM (inactive). In the case of `N#CC1=C(N)C(C#N)(C#N)[C@H](c2ccsc2)[C@H]2COCC=C12`, the EC50 is > 11 µM (inactive). In the case of `Cc1cc(/C=C2\C(=O)NC(=O)N(c3ccc(Br)cc3)C2=O)c(C)n1C` it was > 11 µM (inactive). Next, `Fc1ccc(CNc2nc(-c3ccccc3)nc3ccccc23)cc1`: > 11 µM (inactive); `COc1[nH]c(/N=C/c2ccccc2)c(C#N)c1C#N`: > 11 µM (inactive); `Cc1ccc(NC(=O)CN2C(=O)S/C(=C\c3cccn3-c3cccc(C(=O)O)c3)C2=O)c(C)c1`: > 11 µM (inactive). In the case of `CCOc1ccc2nc3cc(NCc4ccc(OC)cc4)ccc3c(N)c2c1` it was > 11 µM (inactive); in that of `Oc1[nH]c2ccccc2c1N=Nc1ccccc1`, > 11 µM (inactive). In the case of `COc1ccc(OC)c(C2Nc3c(Cl)ccc(C(=O)O)c3C3C=CCC32)c1` (centres undefined), the EC50 is > 11 µM (inactive). Take `Nc1ncnc(NNC(=O)CNC(=O)c2c(F)cccc2Cl)c1[N+](=O)[O-]`: the EC50 is > 11 µM (inactive). Regarding `Cc1c(C(=O)O)cccc1-n1c(C)cc(/C=C(/C#N)C(=O)NCc2ccccc2)c1C`, the EC50 is > 11 µM (inactive).

As for `CCN1CCN(C(=O)c2ccc3c(=O)n(Cc4ccccc4OC)c(=S)[nH]c3c2)CC1`, the EC50 is > 11 µM (inactive). `CCOc1cc(/C=C2\C(=O)NC(=O)N(CCc3ccc(F)cc3)C2=O)ccc1O`: the EC50 is > 11 µM (inactive). Next, `COCCCNC(CC(=O)Nc1cc(C)cc(C)c1)C(=O)O` (centres undefined): > 11 µM (inactive); `Cc1cc(C(=O)N/N=C/c2ccc(-c3cccc(Cl)c3Cl)o2)n[nH]1`: > 11 µM (inactive). In the case of `COc1c(O)cccc1[C@@H](O)C1CCN(CCc2ccc(F)cc2)CC1` it was > 11 µM (inactive); in that of `CC(C)(C)OC(=O)NCCCCC1=CC2=CC(=O)C(C)(OC(=O)c3ccco3)C(=O)C2=CO1` (centres undefined), > 11 µM (inactive); in that of `FC(F)(F)c1cc(C(F)(F)F)n2nc(-c3sccc3-n3cccc3)cc2n1`, > 11 µM (inactive). Next, `Cc1ccc(NC(=O)/C(C#N)=C/c2ccc(C)s2)c(C)c1`: > 11 µM (inactive); `COc1ccc(S(=O)(=O)NNC(=O)C(=O)NNc2ccccn2)cc1`: > 11 µM (inactive). On to `Fc1ccc(C2=CC(c3ccco3)n3ncnc3N2)cc1` (centres undefined), for which the EC50 is > 11 µM (inactive). In the case of `COc1cc(NCCCC(C)N)c2ncccc2c1` (centres undefined) it was > 11 µM (inactive). Next, `CC1(C)CC(=O)C2=C(C1)OC(N)=C(C#N)C21C(=O)N2CCCc3cccc1c32` (centres undefined): > 11 µM (inactive); `COc1cc(-c2cc(=O)c3c(O)c(OC)c(OC)c(O)c3o2)ccc1O`: > 11 µM (inactive).

In the case of `Cc1cc(/C=C2\C(=O)NC(=O)N(Cc3ccco3)C2=O)c(C)n1-c1ccc(C(=O)O)cc1`, the EC50 was > 11 µM (inactive). In the case of `COc1ccc(/C=C2\CCCC(C(=O)C(F)(F)F)=C2O)cc1` it was > 11 µM (inactive); in that of `COc1ccc(N=Cc2cc3c(cc2O)OC(N)=C(C#N)C3c2ccccc2)cc1` (centres undefined), > 11 µM (inactive). In the case of `CCC(=O)Nc1ccc2nc3c(=O)[nH]c(=S)[nH]c3nc2c1` it was > 11 µM (inactive); in that of `O=C(O)c1cccc(-n2cccc2/C=C\[N+](=O)[O-])c1`, > 11 µM (inactive); in that of `Cc1ccc(NC(=O)CCS(=O)(=O)c2cc3c(cc2Cl)NC(=O)CO3)cc1`, > 11 µM (inactive). Next, `O=c1[nH]c(=O)n(-c2ccc(Br)cc2)c(O)c1C=NCCN1CCCCC1`: > 11 µM (inactive). As to `N#CC1=C(N)OC2=C(C(=O)CCC2)C1c1cc2c(cc1Br)OCO2` (centres undefined), the EC50 was > 11 µM (inactive). For the compound `CCCn1c(=N)c(C(=O)NCC2CCCO2)cc2c(=O)n3cccc(C)c3nc21` (centres undefined), the EC50 is > 11 µM (inactive).

On to `O=c1[nH]c(CN2CCc3ccccc3C2)nc2ccccc12`, for which the EC50 is > 11 µM (inactive). `C=CCSc1nnc(N2C(=O)C(O)=C(C(=O)c3ccco3)C2c2ccc(F)cc2)s1` (centres undefined): the EC50 was > 11 µM (inactive).

Turning to `CC1(OC(=O)c2cnc3ccccc3n2)C(=O)C=C2C=C(C3CC3)OC=C2C1=O` (centres undefined), the EC50 is > 11 µM (inactive).

As for `CCOC(=O)N1CCC(NC(=O)C(Cc2ccccc2)NC(=O)C2CCCCC2)CC1` (centres undefined), the EC50 was > 11 µM (inactive). Next, `COC(=O)c1sccc1NC(=O)c1ccc(C)s1`: > 11 µM (inactive); `O=C(NN1C(=O)c2ccccc2NC1c1ccccn1)c1ccc(Br)cc1` (centres undefined): > 11 µM (inactive). With `CC1=CC(C)(C)N2C(=O)C3(C(C#N)=C(N)OC4=C3C(=O)CC(C)(C)C4)c3cc(C)cc1c32` (centres undefined), the EC50 is > 11 µM (inactive). Next, `Cc1cccc(CN2C(=O)N/C(=C/c3ccc(C)s3)C2=O)c1`: > 11 µM (inactive). Next, `CCCCN(C)C(=O)c1cccc(OC2CCN(CC(C)(C)C)CC2)c1`: > 11 µM (inactive); `O=c1oc2c3c4c(cc2s1)CCCN4CCC3`: > 11 µM (inactive); `COc1c(O)cc2oc(-c3ccc(O)c(O)c3)cc(=O)c2c1O`: > 11 µM (inactive). `COc1ccccc1-n1c(O)c(/C=C2\C=Nc3ccccc32)c(=O)[nH]c1=O`: the EC50 is > 11 µM (inactive).

Turning to `N#Cc1c(-c2ccccc2Cl)c2c([nH]c1=O)-c1ccccc1OC2`, the EC50 was > 11 µM (inactive).

Regarding `COC(=O)CCC(=O)OC1(C)C(=O)C=C2C=C(c3ccsc3)OC=C2C1=O` (centres undefined), the EC50 is > 11 µM (inactive).

As for `O=C1/C(=N\S(=O)(=O)c2cccs2)C([n+]2ccc(CCCc3ccccc3)cc2)=C([O-])c2ccccc21`, the EC50 was > 11 µM (inactive). As for `Oc1[nH]c2ccccc2c1N=Nc1cccc(Cl)c1`, the EC50 is > 11 µM (inactive).

Consider `O=C(c1ccc(F)cc1)N1CCN(C2CCC(c3ccccc3)CC2)CC1` (centres undefined), for which the EC50 is > 11 µM (inactive).

With `O=C1c2ccccc2C(=O)N1CCCc1nc(-c2ccncc2)no1`, the EC50 was > 11 µM (inactive).

In the case of `C(=N\Nc1nc2ccccc2[nH]1)/c1ccccn1`, the EC50 is > 11 µM (inactive).

With `Nc1ccc2c(c1)C/C(=C/c1ccco1)C2=O`, the EC50 is > 11 µM (inactive). In the case of `COc1cccc2c1NC(C(=O)O)C1CC=CC21` (centres undefined) it was > 11 µM (inactive); in that of `COc1cc(NC(=O)CSc2nnc3ccc(-c4ccncc4)nn23)cc(OC)c1`, > 11 µM (inactive); in that of `CN(C)c1ccc(/C=C/C(=O)c2cccc(Br)c2)cc1`, > 11 µM (inactive). Next, `O=C(O)C1Nc2ccc(Br)cc2C2C=CCC12` (centres undefined): > 11 µM (inactive); `Cc1nc(S/C(=C/c2ccc(-c3cccc(Cl)c3)o2)C(=O)O)n[nH]1`: > 11 µM (inactive). In the case of `COc1cccc(N=Nc2c(=O)[nH]n3c(=O)cc(C)[nH]c23)c1` it was > 11 µM (inactive); in that of `CC/C(=C\C=C\[C@@H]1C=C[C@@H]2CCC[C@H]2[C@@H]1C(=O)c1ccc[nH]1)[C@@H]1O[C@@H]([C@@H](C)C(=O)O)CC[C@@H]1C`, > 11 µM (inactive). Take `Cc1cc(C)c2c(=O)[nH]c(=O)n(Cc3ccccc3)c2n1`: the EC50 was > 11 µM (inactive). In the case of `Cc1ccc(C2C3CN(C(C)C)CC=C3C(C#N)=C(N)C2(C#N)C#N)cc1` (centres undefined) it was > 11 µM (inactive); in that of `O=C(N/N=C/c1cc(Cl)cc([N+](=O)[O-])c1O)C(O)(c1ccccc1)c1ccccc1`, > 11 µM (inactive). Next, `CN(C)CCCN1C(=O)c2cccc3c(Br)ccc(c23)C1=O`: > 11 µM (inactive); `CN(C)c1cccc2c1c(NS(=O)(=O)c1cn(C)cn1)nn2C`: > 11 µM (inactive).

As for `COC(=O)C1=C(C)N(c2ccccc2)/C(=C/c2ccco2)C1=O`, the EC50 is > 11 µM (inactive). Next, `Cc1cc(/C=C2/C(=O)NC(=O)N(c3ccccc3)C2=O)c(C)n1-c1ccc(F)cc1`: > 11 µM (inactive); `O=C(NCc1ccccc1)C1Nc2ccc(OC(F)(F)F)cc2C2C=CCC12` (centres undefined): > 11 µM (inactive); `Cc1c(C=N)c(O)n(C)c(=O)c1C#N`: > 11 µM (inactive). Next, `CCOC(=O)c1cc(-c2ccc(/C=C3/C(=O)NC(=O)C(C#N)=C3C)o2)ccc1Cl`: > 11 µM (inactive); `COc1cccc(F)c1C(=O)NC(=O)Nc1ccc2nc(C)oc2c1`: > 11 µM (inactive); `O=C(NCc1ccccn1)C1Nc2ccc(OC(F)(F)F)cc2C2C=CCC12` (centres undefined): > 11 µM (inactive).

In the case of `Cc1ccccc1NC(=O)/C(C#N)=C\c1cc(C)n(-c2ccc(C(=O)O)cc2)c1C`, the EC50 was > 11 µM (inactive). In the case of `Cc1nn(-c2ccccc2)c(N2CCCC2)c1/C=C1\N=C(c2ccc(F)cc2)OC1=O` it was > 11 µM (inactive); in that of `COc1cccc(C2c3c(oc4ccccc4c3=O)C(=O)N2Cc2ccco2)c1` (centres undefined), > 11 µM (inactive). `Cc1ccc(/C=C(\C#N)C(=O)Nc2c(C)cccc2C)s1`: the EC50 was > 11 µM (inactive). Next, `O=CN/N=C/c1c(O)ccc2ccccc12`: > 11 µM (inactive); `COc1ccc(C2=CC3=C(Br)C(=O)C(C)(OC(=O)c4ccco4)C(=O)C3=CO2)cc1` (centres undefined): > 11 µM (inactive); `O=C(CCN1C(=O)C2CC=C(Cl)CC2C1=O)N1CCCCC1` (centres undefined): > 11 µM (inactive).

Take `COc1cccc(/C=N/Nc2ncnc(N)c2[N+](=O)[O-])c1OC`: the EC50 was > 11 µM (inactive). On to `Cc1c(Cl)cccc1N1C(=O)NC(=O)/C(=C\c2cc(C)n(-c3cccc(C(=O)O)c3C)c2C)C1=O`, for which the EC50 was > 11 µM (inactive).

In the case of `CCC(C)n1c(O)c(/C=N/Nc2nc3c(c(=O)n(C)c(=O)n3C)n2C)c(=O)[nH]c1=S` (centres undefined), the EC50 is > 11 µM (inactive). Next, `COc1ccc(NC(=O)c2sc3nc(-c4cccnc4)ccc3c2N)cc1`: > 11 µM (inactive); `N#CC1=C(N)OC2=C(C(=O)CCC2)C1c1ccccc1` (centres undefined): > 11 µM (inactive).
